ChEMBL document CHEMBL1201862, “PubChem BioAssay data set” (2004)
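These data come from cells grown in 96-well plates and exposed to compound for 48 hours at five concentrations. GI50 marks 50% less growth.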 Calls of active or inactive are those of the source. Rule as the data show it: active = GI50 up to about 1.1 µM and inactive = higher.

What was measured:
Assay in all cases: inhibition of tumour cell growth, NCI panel, 48 h
786-0 = test system: 786-0
A498 = test system: A498
A549 = test system: A549
ACHN = test system: ACHN
BT-549 = test system: BT-549
CAKI-1 = test system: CAKI-1
CCRF-CEM = test system: CCRF-CEM
COLO 205 = test system: COLO 205
DU-145 = test system: DU-145
EKVX = test system: EKVX
HCC 2998 = test system: HCC 2998
HCT-116 = test system: HCT-116
HCT-15 = test system: HCT-15
HL-60 = test system: HL-60
HOP-62 = test system: HOP-62
HOP-92 = test system: HOP-92
HT-29 = test system: HT-29
Hs-578T = test system: Hs-578T
IGROV-1 = test system: IGROV-1
K562 = test system: K562
KM12 = test system: KM12
LOX IMVI = test system: LOX IMVI
M14 = test system: M14
MCF7 = test system: MCF7
MDA-MB-231 = test system: MDA-MB-231
MDA-MB-435 = test system: MDA-MB-435
MDA-N = test system: MDA-N
Malme-3M = test system: Malme-3M
NCI-H226 = test system: NCI-H226
NCI-H23 = test system: NCI-H23
NCI-H460 = test system: NCI-H460
NCI-H522 = test system: NCI-H522
NCI/ADR-RES = test system: NCI/ADR-RES
OVCAR-3 = test system: OVCAR-3
OVCAR-4 = test system: OVCAR-4
OVCAR-5 = test system: OVCAR-5
OVCAR-8 = test system: OVCAR-8
PC-3 = test system: PC-3
RPMI-8226 = test system: RPMI-8226
SF-268 = test system: SF-268
SF-295 = test system: SF-295
SF-539 = test system: SF-539
SK-MEL-28 = test system: SK-MEL-28
SK-MEL-2 = test system: SK-MEL-2
SK-MEL-5 = test system: SK-MEL-5
SK-OV-3 = test system: SK-OV-3
SN12C = test system: SN12C
SNB-19 = test system: SNB-19
SNB-75 = test system: SNB-75
SR = test system: SR
SW-620 = test system: SW-620
T47D = test system: T47D
TK-10 = test system: TK-10
U-251 = test system: U-251
UACC-257 = test system: UACC-257
UACC-62 = test system: UACC-62
UO-31 = test system: UO-31
MOLT-4 = test system: MOLT-4
RXF 393 = test system: RXF 393

Measured: GI50

Cc1oc2c(Cl)cc(O)c(Cl)c2c2cccc1-2
21.5 µM: HCT-15
inactive: 786-0 21.9 µM | A498 42 µM | A549 28.2 µM | ACHN 40.6 µM | BT-549 23.6 µM | CAKI-1 30.1 µM | CCRF-CEM 14.1 µM | COLO 205 30.4 µM | DU-145 8.85 µM | EKVX 18.7 µM | HCC 2998 > 100 µM | HCT-116 16.6 µM | HL-60 25.8 µM | HOP-62 24.2 µM | HOP-92 14.9 µM | HT-29 35.2 µM | Hs-578T 34.8 µM | IGROV-1 23.1 µM | K562 12.6 µM | KM12 17.7 µM | LOX IMVI 16.9 µM | M14 28.6 µM | MCF7 9.73 µM | MDA-MB-231 33.6 µM | MDA-MB-435 20.1 µM | MDA-N 18.5 µM | Malme-3M 25.7 µM | NCI-H226 14.2 µM | NCI-H23 19.5 µM | NCI-H460 > 100 µM | NCI-H522 26.4 µM | NCI/ADR-RES 28.8 µM | OVCAR-3 18.1 µM | OVCAR-4 12 µM | OVCAR-5 45.5 µM | OVCAR-8 23.6 µM | PC-3 31.3 µM | RPMI-8226 10.4 µM | SF-268 34.9 µM | SF-295 31.6 µM | SF-539 20.1 µM | SK-MEL-28 14.8 µM | SK-MEL-2 33.3 µM | SK-MEL-5 19.4 µM | SK-OV-3 > 100 µM | SN12C 25.9 µM | SNB-19 42.8 µM | SNB-75 2.83 µM | SR 12.5 µM | SW-620 32.5 µM | T47D 1.96 µM | TK-10 > 100 µM | U-251 18.9 µM | UACC-257 > 100 µM | UACC-62 28.6 µM | UO-31 36.4 µM

O=C1/C(=C/c2ccc([N+](=O)[O-])cc2)Sc2scc(-c3cccc([N+](=O)[O-])c3)[n+]21
inactive: 786-0 1.79 µM | A498 3.13 µM | A549 22.2 µM | ACHN 3.97 µM | BT-549 5.36 µM | CAKI-1 2.8 µM | COLO 205 1.85 µM | DU-145 10.6 µM | EKVX 6.7 µM | HCC 2998 5.56 µM | HCT-116 4.6 µM | HOP-62 15.5 µM | HOP-92 3.66 µM | HT-29 2.31 µM | Hs-578T 8.81 µM | IGROV-1 2.91 µM | K562 2.77 µM | KM12 10.8 µM | LOX IMVI 2.41 µM | M14 3.78 µM | MCF7 4.09 µM | MDA-MB-231 4.91 µM | MDA-MB-435 5.46 µM | MDA-N 4.35 µM | MOLT-4 1.99 µM | Malme-3M 1.33 µM | NCI-H226 11.5 µM | NCI-H23 7.93 µM | NCI-H460 8.99 µM | NCI/ADR-RES 5.89 µM | OVCAR-3 4.24 µM | OVCAR-4 9.53 µM | OVCAR-5 8.89 µM | OVCAR-8 6.11 µM | PC-3 12.5 µM | RPMI-8226 3.01 µM | RXF 393 2.35 µM | SF-268 2.15 µM | SF-295 14.2 µM | SF-539 2.37 µM | SK-MEL-2 13.9 µM | SK-MEL-5 5.86 µM | SK-OV-3 15.9 µM | SN12C 4.1 µM | SNB-19 14.8 µM | SNB-75 10.6 µM | SW-620 1.69 µM | T47D 3.35 µM | TK-10 5.18 µM | U-251 10.7 µM | UACC-257 5.32 µM | UACC-62 8.79 µM | UO-31 8.51 µM
2.26 µM: HCT-15
active: CCRF-CEM 0.364 µM | HL-60 0.331 µM | NCI-H522 0.973 µM
